Data reported in US20100291204A1, “COMBINATION OF A LONG-ACTING HYPNOTIC AGENT AND A SHORT-ACTING HYPNOTIC AGENT AND THERAPEUTIC USE THEREOF” (SANOFI-AVENTIS, priority 2005, published 2010).
Marks after values point to notes of the source that are not given here.

Key:
[1] = test system: male Sprague-Dawley rats; experiment: Effects on sleep in rats (6 hours of recording, day 1 versus vehicle day 0); type: in vivo, rat; settings: for Lag time of appearance of NREM sleep: change versus vehicle control; for Duration of NREM sleep / Duration of sleep: total over 6 hours of recording
Experimental: For this study, four groups of male Sprague-Dawley rats are used, each group comprising from 5 to 9 rats.
Group A receives eplivanserin (oral route, hemifumarate) at a dose of 3 mg/kg p.o.
Group B receives zolpidem (oral route, hemitartrate) at a dose of 3 mg/kg p.o.
Group C receives (orally) in combination 3 mg/kg p.o. of eplivanserin hemifumarate and 3 mg/kg of zolpidem hemitartrate, the two compounds being administered with an interval of 5 minutes.
Finally, group D receives zolpidem (oral route, hemitartrate) at a dose of 10 mg/kg p.o.
The data are recorded on day 0 (control day), when the animals receive only a vehicle (distilled water and methylcellulose) and on day 1 when the animals receive the active principles.
The data are recorded for 6 hours each day, the active principles being administered 15 minutes before the start of recording.
In Table I, the results are expressed as percentages relative to the control groups receiving only the vehicle, unless otherwise indicated.
Duration of sleep: total duration of sleep during the 6 hours of recording. Duration of NREM sleep: total duration of NREM sleep during the 6 hours of recording. Lag time of appearance of NREM sleep: time measured from the start of the recording up to the moment of the first period of NREM sleep. Mean duration of the periods of NREM sleep: duration of NREM sleep/number of periods of NREM sleep during the 6 hours of recording.

[2] = cited from earlier work; for bioavailability: in vivo
[3] = Group B: zolpidem hemitartrate 3 mg/kg p.o., relative to vehicle control
[4] = Group D: zolpidem hemitartrate 10 mg/kg p.o., 6 hours of recording, relative to vehicle control
[5] = Group D: zolpidem hemitartrate 10 mg/kg p.o., relative to vehicle control

Compound	Mean duration of the periods of NREM sleep ([1]; Group B: zolpidem hemitartrate 3 mg/kg p.o., 6 hours of recording, relative to vehicle control) [%]	Lag time of appearance of NREM sleep ([1]; Group B: zolpidem hemitartrate 3 mg/kg p.o., from start of recording to first period of NREM sleep) [min]	Duration of NREM sleep [1, 3]	Duration of sleep [1, 3] [%]	Mean duration of the periods of NREM sleep [1, 4]	Mean number of periods of NREM sleep [1, 4]	Lag time of appearance of NREM sleep ([1]; Group D: zolpidem hemitartrate 10 mg/kg p.o.) [min]	Duration of NREM sleep [1, 5]	Duration of sleep [1, 5] [%**]	bioavailability [2] [%]	duration of action ([2]; mean dose between 5 and 10 mg in a conventional formulation)	Lag time of appearance of NREM sleep ([1]; Group A: eplivanserin hemifumarate 3 mg/kg p.o., from start of recording to first period of NREM sleep)
Cc1ccc(-c2nc3ccc(C)cn3c2CC(=O)N(C)C)cc1 [zolpidem]	−15	-6	+4%	−2	+31%**	+1%	-1.2	+33%**	−20	70	up to 6 hours	–
CN(C)CCO/N=C(/C=C/c1ccc(O)cc1)c1ccccc1F [eplivanserin]	–	–	–	–	–	–	–	–	–	80	–	+0.6 min
